In patent publication EP3017816A2, “DIINDOLYLMETHANE-BASED MEDICINAL AGENT AND USE THEREOF TO TREAT INFLUENZA AND VIRAL RESPIRATORY INFECTIONS” (Kiselev, Vsevolod Ivanovich, priority 2013, dated 2014):
“And” between values parts separate entries of the source, which are not always exact repeats. Equal entries are not always repeated.

Experiments:
[1] = Concentration of diindolylmethane in volunteers' plasma after oral administration; assay type: in vivo; conditions: same dosage; range of concentrations approximately 300 ng/ml
Experimental: In all the clinical studies, pharmacokinetics comparison was made between the DIM preparation of the invention on the basis of A-type fish oil with the concentration 1-10% of preparation, the DIM preparation on the basis of Omega 3 and the crystalline DIM in the same dosages. […] The maximum DIM concentration in blood was observed two hours after the administration of preparations and achieved approximately 300 ng/ml.

[2] = system: A/Aichi/2/68 (H3N2) influenza virus; experiment: Virus titration in lung tissue of infected mice (CAM fragments, hemagglutination reaction); assay type: in vivo, white mice; conditions: 3rd day
[3] = system: A/Aichi/2/68 (H3N2) influenza virus; experiment: Experimental lethal influenza infection in mice: mortality, average life, protection index; assay type: in vivo, white mice; conditions: for Average life / Protection index, % / total mortality (number of dead/infected): reference preparation, dose not given; for total mortality (number of dead/infected): day 15
[4] = system: A/Aichi/2/68 (H3N2) influenza virus; experiment: Surface of chronic postinfluenzal pneumonia foci in lungs of surviving mice; assay type: in vivo, white mice; conditions: for Surface of chronic pneumonia foci (% of total surface of the lung surface): reference preparation, dose not given, survivors day 15
Experimental: The animals that survived to the 15th day after infection were autopsied and their lungs were studied macroscopically. Visual evaluation was carried out of the surface of chronic foci of postinfluenzal pneumonia remaining in the lung tissue of mice after the acute stage of the influenza infection within the entire life of the animal. The surface of the lesion foci was expressed in percentage to the entire lung surface.

Structure (SMILES)	detection of DIM in the patients' plasma [1]	Infectious titer of the influenza virus (lg EID50) in lungs ([2]; 60 mg/kg orally, virus dosage 1, group average)	Infectious titer of the influenza virus (lg EID50) in lungs ([2]; 60 mg/kg orally, virus dosage 1, individual animals)	Infectious titer of the influenza virus (lg EID50) in lungs ([2]; 60 mg/kg orally, virus dosage 2, group average)	Infectious titer of the influenza virus (lg EID50) in lungs ([2]; 60 mg/kg orally, virus dosage 2, individual animals)	survival of infected animals (Fig. 2) ([3]; virus dosage 10 LD50)	effect on the surface of chronic pneumonia foci [4]	Surface of chronic pneumonia foci (% of total surface of the lung surface) ([4]; viral dosage 1 LD50)	Surface of chronic pneumonia foci (% of total surface of the lung surface) ([4]; viral dosage 10 LD50)	Infectious titer of the influenza virus (lg EID50) in lungs ([2]; 50 mg/kg orally, virus dosage 1, group average)	Infectious titer of the influenza virus (lg EID50) in lungs ([2]; 50 mg/kg orally, virus dosage 1, individual animals)	Infectious titer of the influenza virus (lg EID50) in lungs ([2]; 50 mg/kg orally, virus dosage 2, group average)	Infectious titer of the influenza virus (lg EID50) in lungs ([2]; 50 mg/kg orally, virus dosage 2, individual animals)	Average life ([3]; virus dosage 1 LD50)	Protection index, % ([3]; virus dosage 1 LD50)	total mortality (number of dead/infected) ([3]; virus dosage 1 LD50)	Average life ([3]; virus dosage 10 LD50)	Protection index, % ([3]; virus dosage 10 LD50)	total mortality (number of dead/infected) ([3]; virus dosage 10 LD50)	protection index ([3]; text summary over both virus dosages)
c1ccc2c(Cc3c[nH]c4ccccc34)c[nH]c2c1 [crystalline DIM, 3,3-diindolylmethane]	did not enable one to discover it in this range of concentrations	3.8±0.17 lg EID50	4.0 lg EID50 (2×) and 3.5 lg EID50	4.5±0.29 lg EID50	5.0 lg EID50 and 4.0 lg EID50 and 4.5 lg EID50	had no practical influence on the survival														
CC(N)C12CC3CC(CC(C3)C1)C2 (centres unmarked) [rimantadine]							reduced this index for each infecting dosage	31±11.8%	27±6.8%	2.3±0.17 lg EID50	2.0 lg EID50 and 3.0 lg EID50 and 2.5 lg EID50	2.7±0.17 lg EID50	2.5 lg EID50 (2×) and 3.0 lg EID50	14.4 days	80%	1/10	13.9 days	78%	2/10	78-80%
